Columns and labels:
spleen cells = assay: Flow-cytometric analysis of CD69 in spleen cells of WT and TLR7−/− mice; assay type: cell-based, mouse; settings: cytofluorimetry
Procedure: Experiments were performed to determine whether the miRNA-TLR interaction is functional, and assessed whether the miRNAs of interest induce the secretion of cytokines such as TNF-α and IL-6, whose production is increased by TLR activation. We isolated peritoneal macrophages from WT and TLR7^−/− B6 mice. Cells were treated with Dotap alone or with Dotap formulations of miR-16, -21, -29a, and -147, and an ELISA for TNF-α and IL-6 was performed. In the functional assays, included also were miR-147 and -574-5p, because they have a mature viral-derived sequence that induces cytokine production through the activation of TLR8 and TLR7, similar to that of RNA33 (FIG. 14A). […] We also treated spleen cells from WT and TLR7^−/− mice with the same miRNAs and assessed expression of CD69, an early activation marker of cells which has a role in inflammation and proliferation and which also is activated by TLR3. Polyinosinic:polycytidylic acid [poly (I:C)], a known agonist of TLR3, served as positive control.
Total splenocytes derived from WT and TLR7^−/− age- and sex-matched mice were prepared by harvesting the spleen and preparing a single-cell suspension. Red blood cells were eliminated by osmotic lysis using red blood cell lysis buffer (eBioscience). […] Cells were stained with phycoerythrin-conjugated anti-CD69 (BioLegend) antibody and analyzed using FACSCalibur flow cytometer (Becton Dickinson).

[1] = tested on: human peripheral blood mononuclear cells (PBMCs); assay: ELISA for TNF-α and IL-6 on human PBMCs; assay type: cell-based; settings: human PBMCs from two healthy donors, Dotap formulations
Procedure: To investigate whether miRNA-induced activation of TLRs also occurs in human cells, an NF-κB reporter assay was performed in HEK-293 cells. NF-κB, a transcription factor modulating the expression of several cytokine genes, is activated by several TLRs, including the only ssRNA-binding human TLRs, TLR7 and TLR8. Therefore, we treated HEK-293 cells expressing human TLR7 or TLR8 (hereafter, TLR7- and TLR8-HEK-293 cells, respectively) with Dotap alone or with Dotap formulations of miR-16, -21, -29a, or -147 and performed an NF-κB reporter assay. As positive controls Gardiquimod and ssRNA40 were used, specific agonists of TLR7 and TLR8, respectively. […] To confirm this conclusion, transfected were TLR8-HEK-293 cells with a plasmid encoding a dominant negative form of TLR8 (TLR8DN) and treated these cells with the miRNAs of interest. In TLR8DN cells, the activation of NF-κB by miR-21 and miR-29a was abolished (FIG. 3F). Also, incubated were TLR7- and TLR8-expressing human peripheral blood mononuclear cells (PBMCs) from two healthy donors with Dotap alone or Dotap formulations of miR-16, -21, -27b, -29a, -147, -574-5p, or ssRNA40 and an ELISA was performed for TNF-α and IL-6. With the exception of PBMCs treated with Dotap alone and with Dotap-miR-16, each of the other miRNAs and ssRNA40 induced the production of TNF-α and IL-6 (FIGS. 3G-3J). […]

miR-147: synthetic mature miRNA (SEQ ID NO: 3), sequence similar to RNA33, Dotap formulation (GUGUGUGGAAAUGCUUCUGC; DOTAP formulation, further chemistry not given here)
CD69 activation (spleen cells; spleen cells from TLR7−/− mice): not | CD69 activation (spleen cells; spleen cells from WT mice): induced | production of IL-6 [1]: induced | production of TNF-α [1]: induced

Reference: patent US9481885B2, “Methods and compositions related to miR-21 and miR-29a, exosome inhibition, and cancer metastasis” (Ohio State Innovation Foundation, priority 2011, dated 2016)
